We go through one substance from patent publication US7067486B2, “Acetylcholinesterase-derived peptides and uses thereof” (priority 1999, dated 2006).

This test relates to CD34^+ cells. In words: Viable cell expansion in CD34+ liquid cultures (trypan blue exclusion). Format: cell-based, human. An excerpt: Cell Source: UCB was collected, following informed consent of the parents and with the approval of the Sourasky Medical Center Ethics Committee, as previously described [Grisaru et al. (1999a) Am. J. Obstet. Gynecol, 180, 1240–1243]. Following 1:1 (v/v) dilution in Iscove's modified Dulbecco medium (IMDM, Beit Haemek, Israel), mononuclear cells were separated using 3% gelatin (Difco, Detroit, Mich.) and Ficoll-Hypaque gradients (<1.077 g/ml; Pharmacia, Uppsala, Sweden) [Pick et al. (1998) Br. J. Haematol. 103, 639–50]. CD34^+ cells were enriched using CD34 immunoglobulin-coated magnetic beads (CD34 progenitor cell selection system, Dynal, Norway).CD34^+ cells analysis was performed by flow cytometry (Becton Dickinson Immunocytochemistry System Inc., San Jose, Calif.), using CD34-PE (Becton Dickinson Immunocytometry System, Inc.) and CD45-FITC (Dako, Glostrup, Denmark) monoclonal antibodies. […] Liquid Cultures: UCB CD34^+ cells were set for liquid cultures at a concentration of 10^5/mL in IMDM, containing 10% autologous plasma, 2 mM L-glutamine (Sigma Chemical Co., St Louis, Mo.), penicillin ([…]), streptomycin ([…]), amphotericin B (2×10^−5 M) (Sigma Chemical Co.), and heparin (20 IU/mL, Gibco, Grand Island, N.Y.), all in a fully humidified atmosphere at 37° C. and 5% CO2. The following elements were added where noted: • 1. Hematopoietic growth factors: Interleukin 3 (IL3, 5 ng/mL, Immunex, Seattle, Wash.), interleukin 6 (IL6, 50 ng/mL, R&D Systems, Minneapolis, Minn.), TPO (1 ng/mL, R&D Systems), stem cell factor (SCF, 10 ng/mL, R&D Systems), FLT-3 ligand (FLT3, 50 ng/mL, R&D Systems), granulocyte-macrophage colony stimulating factor (GM-CSF, 50 ng/mL, Biogenesis Ltd, Bournemouth, UK) and combinations of the above, for 24 hr to 28 days (supplemented every 4 days). • 2. Endothlial Growth factors: Epidermal growth factor (EGF 10 ng/ml, Sigma Chemical Co.), basic Fibroblast growth factor (bFGF 20 ng/ml, Sigma Chemical Co.) incubated in a serum free medium (SFM) for 48 hr. • 3. […] AChE C-terminal peptides: The following C-terminal peptides of the AChE synaptic (ASP, also denoted SEQ ID: No. 2) and readthrough (ARP, also denoted SEQ ID: No. 1) isoforms were synthesized using a 433A peptide synthesizer (PE Applied Biosystems, Inc., Norwalk, Conn.). • ASP: 1-[…]-40, also denoted as SEQ ID: No. 2. • ARP: 1-[…]-26, also denoted as SEQ ID: No. 1. […]

For “ASP (DTLDEAERQWKAEFHRWSSYMVHWKNQFDHYSKQDRCSDL)”, for the setting “day 14, seeded at 50,000 cells/well, ARP 2 nM, cortisol 1.2 μM, ASP 2 nM, SCF 50 ng/ml, AS1 20 pM, PBAN 2 nM”, the Total viable cells is given as 100.0 cells per culture × 10^−3. Further, the “promotion of cell expansion compared with ARP” value (similar doses, alone or with cytokines, 2 weeks) is on record as “less effective than ARP”.
